Experimental data published in patent publication US11344510B2, “Arylcyclohexylamine derivatives and their use in the treatment of psychiatric disorders” (Gilgamesh Pharmaceuticals, Inc., priority 2019, dated 2022).

Experiments:
[1] = target: T1, vesicular monoamine transporter 2 (VMAT2) (Homo sapiens, UniProt Q05940); experiment: Fluorescent substrate uptake inhibition, VMAT2; format: cell-based; settings: 10 μM, transfected cells
T1 construct: expressed in transfected cells
Experimental: (§1) Uptake Inhibition. The ability of test compounds to block monoamine uptake by SERT, NET, DAT, and VMAT2 was determined using the Neurotransmitter Transporter Uptake Assay Kit manufactured by Molecular Devices (Cat #R8173). Briefly, stably transfected cells expressing the MAT of interest (HEK293 cells for SERT and NET; CHO cells for DAT) were grown and plated into 384-well plates at a concentration of 20,000 cells per well. Plates were then incubated for 16-20 h at 37° C. and 5% CO2. The medium was then aspirated and replaced with 25 μL of assay buffer (20 mM HEPES in HBSS, containing 0.1% BSA) containing the test compounds at the appropriate concentrations. Plates were then centrifuged at 300 rpm for 15 s and then incubated at 37° C. for 30 minutes. At this time, 25 μL of the proprietary fluorescent dye solution was added, the plates were incubated at 37° C. for 60 minutes, and then fluorescence was quantified on a plate reader (excitation wavelength=440 nm, emission wavelength=520 nm). The proprietary dye solution contains a mixture of 1) a fluorescent dye that mimics the endogenous substrates of MATs and is thereby actively transported to the intracellular compartment in the absence of an inhibitor and 2) a masking dye that inhibits the fluorescence of dye 1 in the extracellular compartment. Therefore, the overall fluorescence of the system increases as the fluorescent dye is transported into the cells.

[2] = target: T2, serotonin transporter (SERT) (Homo sapiens, UniProt P31645); experiment: Fluorescent substrate uptake inhibition, SERT; format: cell-based; settings: 10 μM, HEK293 cells expressing SERT
T2 construct: expressed in transfected cells; host or cells: HEK293
Experimental: as §1

[3] = HLM stability (Low Activity, Alternative Method); format: in vitro ADME; settings: both sexes, human, liver microsomes, pH 7.4, Condition 1 column, values marked *: Low Activity, 0.50 mg protein/mL
Experimental: (§2) HLM Stability (Low Activity, Alternative Method). Pooled HLM from adult male and female donors (Corning 452117) were used. Microsomal incubations were carried out in multi-well plates. Liver microsomal incubation medium consisted of PBS (100 mM, pH 7.4), MgCl2 (1 mM), and NADPH (1 mM), with 0.50 mg of liver microsomal protein per mL. Control incubations were performed by replacing the NADPH-cofactor system with PBS. Test compounds (1 μM, final solvent concentration 1.0%) were incubated with microsomes at 37° C. with constant shaking. Six time points over 60 minutes were analyzed, with 60 μL aliquots of the reaction mixture being drawn at each time point. The reaction aliquots were stopped by adding 180 μL of cold (4° C.) acetonitrile containing 200 ng/mL tolbutamide and 200 ng/mL labetalol as internal standards (IS), followed by shaking for 10 minutes, and then protein sedimentation by centrifugation at 4000 rpm for 20 minutes at 4° C. Supernatant samples (80 μL) were diluted with water (240 μL) and analyzed for parent compound remaining using a fit-for-purpose liquid chromatography-tandem mass spectrometry (LC-MS/MS) method.
(§3) Data Analysis. The elimination constant (kel), half-life (t1/2) and intrinsic clearance (Clint) were determined in a plot of […] versus time, using linear regression analysis.

[4] = target: MK-801 binding site of the N-methyl-D-aspartate receptor (NMDAR); experiment: NMDAR radioligand binding with [3H]MK-801, Method B; parameters: species or system Sprague Dawley rat; settings: MK-801 site, Method B, male Sprague Dawley rat cortex, 5.0 nM [3H]MK-801; read-out: NMDAR Ki ± SEM
Experimental: Radioligand Binding—Method B. Affinity of the test compounds for NMDAR was determined in radioligand binding experiments with [^3H]MK-801 by WuXi AppTec (Hong Kong) Limited, under the conditions described in Table 13.

[5] = target: T3, dopamine transporter (DAT) (Homo sapiens, UniProt Q01959); experiment: Fluorescent substrate uptake inhibition, DAT; format: cell-based; settings: 10 μM, CHO cells expressing DAT
T3 construct: expressed in transfected cells; host or cells: CHO (uptake)
Experimental: as §1

[6] = target: T4, norepinephrine transporter (NET) (Homo sapiens, UniProt P23975); experiment: Fluorescent substrate uptake inhibition, NET; format: cell-based; settings: 10 μM, HEK293 cells expressing NET
T4 construct: expressed in transfected cells; host or cells: HEK293
Experimental: as §1

[7] = MLM stability (Low Activity); format: in vitro ADME, CD-1 mice; settings: male, CD-1, mouse, liver microsomes, pH 7.4, Condition 1 (Low Activity), 0.50 mg protein/mL
Experimental: as §2, with “MLM” for “HLM”, “Activity).” for “Activity, Alternative Method).”, “from” for “from adult”, “CD-1 mice (XenoTech M1000)” for “and female donors (Corning 452117)”
as §3

[8] = RLM stability (Low Activity); format: in vitro ADME, Sprague Dawley rats; settings: male, Sprague Dawley, rat, liver microsomes, pH 7.4, Condition 1 (Low Activity), 0.50 mg protein/mL
Experimental: as §2, with “RLM” for “HLM”, “Activity).” for “Activity, Alternative Method).”, “from” for “from adult”, “Sprague Dawley rats (XenoTech R1000)” for “and female donors (Corning 452117)”
as §3

[9] = MLM stability (High Activity); format: in vitro ADME, BALB/c mice; settings: male, BALB/c, mouse, liver microsomes, pH 7.4, Condition 2 (High Activity), 1.0 mg protein/mL
Experimental: MLM Stability (High Activity). Pooled MLM from male BALB/c mice (XenoTech M3000) were used. Microsomal incubations were carried out in 96-well plates in 5 aliquots of 40 μL each (one for each time point). Liver microsomal incubation medium consisted of PBS (100 mM, pH 7.4), MgCl2 (3.3 mM), NADPH (3 mM), glucose-6-phosphate (5.3 mM), and glucose-6-phosphate dehydrogenase (0.67 units/mL), with 1.0 mg of liver microsomal protein per mL. Control incubations were performed by replacing the NADPH-cofactor system with PBS. Test compounds (1 μM, final solvent concentration 1.6%) were incubated with microsomes at 37° C., shaking at 100 rpm. Incubations were performed in duplicate. Five time points over 60 minutes were analyzed. The reactions were stopped by adding 9 volumes of 90% acetonitrile-water to incubation aliquots, followed by protein sedimentation by centrifugation at 5500 rpm for 3 minutes. Supernatants were analyzed for parent compound remaining using a fit-for-purpose liquid chromatography-tandem mass spectrometry (LC-MS/MS) method, with authentic samples of each analyte used for identity confirmation.
as §3

[10] = HLM stability (High Activity); format: in vitro ADME; settings: both sexes, human, liver microsomes, pH 7.4, Condition 2 (High Activity), 1.0 mg protein/mL
Experimental: HLM Stability (High Activity). Pooled HLM from adult male and female donors (XenoTech H0630) were used. Microsomal incubations were carried out in 96-well plates in 5 aliquots of 40 μL, each (one for each time point). Liver microsomal incubation medium consisted of PBS (100 mM, pH 7.4), MgCl2 (3.3 mM), NADPH (3 mM), glucose-6-phosphate (5.3 mM), and glucose-6-phosphate dehydrogenase (0.67 units/mL), with 1.0 mg of liver microsomal protein per mL. Control incubations were performed by replacing the NADPH-cofactor system with PBS. Test compounds (1 μM, final solvent concentration 1.6%) were incubated with microsomes at 37° C., shaking at 100 rpm. Incubations were performed in duplicate. Five time points over 60 minutes were analyzed. The reactions were stopped by adding 12 volumes of 90% acetonitrile-water to incubation aliquots, followed by protein sedimentation by centrifugation at 5500 rpm for 3 minutes. Supernatants were analyzed for parent compound remaining using a fit-for-purpose liquid chromatography-tandem mass spectrometry (LC-MS/MS) method, with authentic samples of each analyte used for identity confirmation.
as §3

T1 sequence (Q05940 whole entry, species assumed): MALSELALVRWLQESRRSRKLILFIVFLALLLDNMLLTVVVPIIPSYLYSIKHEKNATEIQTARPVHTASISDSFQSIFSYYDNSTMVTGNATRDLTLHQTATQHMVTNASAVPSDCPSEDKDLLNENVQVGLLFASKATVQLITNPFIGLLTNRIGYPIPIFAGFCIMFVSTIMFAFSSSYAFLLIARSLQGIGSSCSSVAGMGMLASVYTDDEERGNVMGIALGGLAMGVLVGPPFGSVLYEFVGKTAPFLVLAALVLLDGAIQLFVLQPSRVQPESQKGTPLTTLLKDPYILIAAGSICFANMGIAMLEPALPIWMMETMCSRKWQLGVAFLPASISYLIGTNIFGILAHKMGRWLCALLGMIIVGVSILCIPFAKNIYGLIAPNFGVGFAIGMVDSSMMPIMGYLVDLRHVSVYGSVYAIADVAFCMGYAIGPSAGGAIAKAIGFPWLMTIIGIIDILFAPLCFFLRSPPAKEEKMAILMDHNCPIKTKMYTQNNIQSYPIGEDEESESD
T3 sequence (Q01959 whole entry, species assumed): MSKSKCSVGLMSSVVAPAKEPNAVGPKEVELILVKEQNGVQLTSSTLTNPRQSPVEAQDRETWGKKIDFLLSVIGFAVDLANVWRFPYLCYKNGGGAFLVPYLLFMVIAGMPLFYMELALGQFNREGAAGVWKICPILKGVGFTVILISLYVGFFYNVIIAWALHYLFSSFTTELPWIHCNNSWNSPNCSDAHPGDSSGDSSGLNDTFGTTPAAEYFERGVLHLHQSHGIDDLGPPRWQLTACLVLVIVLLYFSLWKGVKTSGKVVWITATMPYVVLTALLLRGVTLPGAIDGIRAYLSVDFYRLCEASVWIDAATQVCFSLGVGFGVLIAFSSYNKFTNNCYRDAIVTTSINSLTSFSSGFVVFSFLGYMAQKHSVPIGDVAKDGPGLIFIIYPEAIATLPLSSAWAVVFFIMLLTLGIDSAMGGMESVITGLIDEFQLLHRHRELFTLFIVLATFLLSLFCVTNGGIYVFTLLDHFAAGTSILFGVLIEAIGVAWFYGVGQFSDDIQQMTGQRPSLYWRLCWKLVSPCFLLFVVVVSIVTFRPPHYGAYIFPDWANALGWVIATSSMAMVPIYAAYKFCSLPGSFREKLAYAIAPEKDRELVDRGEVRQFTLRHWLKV
T2 sequence (P31645 whole entry, species assumed): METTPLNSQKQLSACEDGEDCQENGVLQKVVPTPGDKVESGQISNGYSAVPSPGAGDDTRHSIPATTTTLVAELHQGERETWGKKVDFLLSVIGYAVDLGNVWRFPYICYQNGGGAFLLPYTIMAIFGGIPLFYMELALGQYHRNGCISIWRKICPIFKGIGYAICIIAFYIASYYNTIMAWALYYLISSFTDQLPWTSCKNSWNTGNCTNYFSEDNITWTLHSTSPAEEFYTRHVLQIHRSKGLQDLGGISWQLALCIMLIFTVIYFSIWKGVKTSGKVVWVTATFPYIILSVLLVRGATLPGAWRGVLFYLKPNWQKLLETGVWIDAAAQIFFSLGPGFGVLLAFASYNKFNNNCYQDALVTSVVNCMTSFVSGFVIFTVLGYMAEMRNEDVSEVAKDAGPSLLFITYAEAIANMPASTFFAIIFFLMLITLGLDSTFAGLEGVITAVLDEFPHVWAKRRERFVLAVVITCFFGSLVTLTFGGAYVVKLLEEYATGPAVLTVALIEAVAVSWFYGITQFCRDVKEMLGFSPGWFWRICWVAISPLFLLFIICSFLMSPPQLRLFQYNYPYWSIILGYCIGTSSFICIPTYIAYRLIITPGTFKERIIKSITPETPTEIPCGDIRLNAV
T4 sequence (P23975 whole entry, species assumed): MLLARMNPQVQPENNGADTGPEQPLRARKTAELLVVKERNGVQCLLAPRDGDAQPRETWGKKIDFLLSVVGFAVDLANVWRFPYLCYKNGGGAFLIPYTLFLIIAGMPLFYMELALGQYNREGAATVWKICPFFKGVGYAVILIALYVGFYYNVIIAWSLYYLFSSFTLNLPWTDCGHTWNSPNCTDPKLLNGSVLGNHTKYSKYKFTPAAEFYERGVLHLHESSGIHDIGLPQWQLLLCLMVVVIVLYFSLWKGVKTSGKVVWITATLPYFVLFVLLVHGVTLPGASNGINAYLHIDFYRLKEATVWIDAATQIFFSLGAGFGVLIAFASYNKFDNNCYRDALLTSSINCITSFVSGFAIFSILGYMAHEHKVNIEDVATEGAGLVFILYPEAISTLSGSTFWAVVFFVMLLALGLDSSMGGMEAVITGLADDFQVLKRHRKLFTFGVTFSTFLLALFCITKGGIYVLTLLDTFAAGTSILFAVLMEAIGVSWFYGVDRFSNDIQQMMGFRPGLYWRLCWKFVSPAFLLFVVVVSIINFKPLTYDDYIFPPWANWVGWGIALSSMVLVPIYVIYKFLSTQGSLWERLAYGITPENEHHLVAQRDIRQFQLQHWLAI

| SMILES | inhibition at 10 µM [1] [%] | inhibition at 10 µM [2] [%] | half-life at 1 μM [3] [min] | microsomal CLint at 1 μM [3] [µL/min/mg] | Ki [4] [µM] | inhibition at 10 µM [5] [%] | inhibition at 10 µM [6] [%] | half-life at 1 μM [7] [min] | microsomal CLint at 1 μM [7] [µL/min/mg] | half-life at 1 μM [8] [min] | microsomal CLint at 1 μM [8] [µL/min/mg] | half-life at 1 μM [9] [min] | microsomal CLint at 1 μM [9] [µL/min/mg] | half-life at 1 μM [10] [min] | microsomal CLint at 1 μM [10] [µL/min/mg] |
| --- | --- | --- | --- | --- | --- | --- | --- | --- | --- | --- | --- | --- | --- | --- | --- |
| CC1CCN1C1(c2ccccc2)CCCCC1=O (stereo not drawn) [Compound 128mix, 2-(2-methylazetidin-1-yl)-2-phenylcyclohexan-1-one] | 23.4 | 81.9 | 87 | 15.9 | 1.9 | 19.2 | -2.9 | 20.3 | 68.3 | 27.4 | 50.6 | – | – | – | – |
| COCCN[C@]1(c2ccccc2)CCCCC1=O [Compound 29S, (5)-2-((2-methoxyethyl)amino)-2-phenylcyclohexan-1-one] | -10.5 | -12.9 | > 145 | < 9.6 | 8.2 | 13.7 | 4 | 35.7 | 35.8 | 31.8 | 43.6 | – | – | – | – |
| CCN(CC)[C@]1(c2ccccc2)CCCCC1=O [Compound 25S, (S)-2-(diethylamino)-2-phenylcyclohexanone] | 1.7 | 45.6 | 42 | 33 | 5.2 | 24.9 | -0.13 | 8.6 | 161 | 14.5 | 95.4 | – | – | – | – |
| O=C1CCCC[C@]1(NCCO)c1ccccc1 [Compound 30S, (S)-2-((2-hydroxyethyl)amino)-2-phenylcyclohexan-1-one] | 23.2 | 51.9 | – | – | 23 | 18.7 | 22.3 | – | – | – | – | 4.3 | 162 | 11.4 | 61 |
| CN[C@]1(c2ccccc2C)CCCCC1=O [Compound 38S, (S)-2-(methylamino)-2-(o-tolyl)cyclohexan-1-one] | -11.2 | 39.7 | – | – | 0.24 | 8.3 | 2.7 | – | – | – | – | 22.4 | 31 | 110 | 6 |
| O=C1CCCC[C@@]1(NCCF)c1ccccc1 [Compound 86R, (R)-2-((2-fluoroethyl)amino)-2-phenylcyclohexan-1-one] | -8.9 | 7.1 | – | – | 7.1 | 13.6 | 11.4 | – | – | – | – | 6.2 | 113 | 55.8 | 12 |
| O=C1CCCC[C@@]1(NCCO)c1ccccc1 [Compound 30R, (R)-2-((2-hydroxyethyl)amino)-2-phenylcyclohexan-1-one] | 16.3 | 1.2 | – | – | > 23 | 8.5 | 3.5 | – | – | – | – | 6.5 | 106 | 23 | 30 |
| O=C1CCCC[C@]1(NCCF)c1ccccc1 [Compound 86S, (S)-2-((2-fluoroethyl)amino)-2-phenylcyclohexan-1-one] | -5.5 | 14.1 | – | – | 1.3 | 20.8 | 12.2 | – | – | – | – | 8.5 | 82 | 61.9 | 11 |
| CN[C@@]1(c2ccccc2C)CCCCC1=O [Compound 38R, (R)-2-(methylamino)-2-(o-tolyl)cyclohexan-1-one] | 2.9 | 41.5 | – | – | 0.74 | -2.2 | 20.3 | – | – | – | – | 30 | 23 | 111 | 6 |
